According to ChEMBL document CHEMBL4190214, “Identification of BMI1 Promoter Inhibitors from Beaumontia murtonii and Eugenia operculata” (J Nat Prod, 2017):
pIC50: −log10 of the molar value. One block for each molecule: values may come before it.

How the values were obtained:
[1] = Inhibition of BMI1 promoter (unknown origin) expressed in HEK293T cells after 24 hrs by luciferase reporter gene assay; type: cell-based; conditions: HEK-293T
Huh-7 [2] = assay: Inhibition of self-renewal of human HuH7 cells assessed as reduction in EpCAM positive fraction at 50 uM after 20 mins by propidium iodide staining-based flow cytometric analysis; type: functional; conditions: Huh-7, 20 min
Homo sapiens = organism: Homo sapiens; assay: Inhibition of BMI1 promoter in human HCT116 cells assessed as decrease in BMI1 protein expression levels after 24 hrs by Western blot analysis; type: cell-based
Huh-7 [3] = assay: Inhibition of self-renewal of human HuH7 cells assessed as EpCAM negative fraction at 5 uM after 20 mins by propidium iodide staining-based flow cytometric analysis (reference value: 8.8 %); type: functional; parameters: scale not given: the % may be the effect or the level left
HEK293 = assay: Cytotoxicity against HEK293 cells after 24 hrs by fluorescein diacetate staining-based fluorescence assay; type: cell-based; conditions: Homo sapiens, HEK293, 24 h
Huh-7 [4] = assay: Inhibition of self-renewal of human HuH7 cells assessed as EpCAM positive fraction at 5 uM after 20 mins by propidium iodide staining-based flow cytometric analysis (reference value: 91.2 %); type: functional; parameters: scale not given: the % may be the effect or the level left
HCT-116 = assay: Cytotoxicity against human HCT116 cells after 24 hrs by fluorescein diacetate staining-based fluorescence assay; type: functional, cell-based; conditions: HCT-116, 24 h
DU-145 = assay: Cytotoxicity against human DU145 cells after 24 hrs by fluorescein diacetate staining-based fluorescence assay; type: functional, cell-based; conditions: DU-145, 24 h
Huh-7 [5] = assay: Inhibition of self-renewal capacity of human EpCAM-positive HuH7 cells assessed as reduction in sphere formation after 6 days; type: functional, cell-based
Huh-7 [6] = assay: Inhibition of self-renewal of human HuH7 cells assessed as EpCAM positive fraction at 0.5 uM after 20 mins by propidium iodide staining-based flow cytometric analysis (reference value: 91.2 %); type: functional; parameters: scale not given: the % may be the effect or the level left
Huh-7 [7] = assay: Inhibition of self-renewal of human HuH7 cells assessed as EpCAM negative fraction at 0.5 uM after 20 mins by propidium iodide staining-based flow cytometric analysis (reference value: 8.8 %); type: functional; parameters: scale not given: the % may be the effect or the level left

SMILES: C[C@]12CC[C@H](O)C[C@H]1CC[C@@H]1[C@@H]2CC[C@]2(C)[C@@H](C3=CC(=O)OC3)CC[C@]12O [DIGITOXIGENIN]
- pIC50 [1]: 5.77

SMILES: O=[N+]([O-])c1ccc(Nc2ccccc2-c2ccccc2)c2nonc12
- inhibition at 50 µM (Huh-7 [2]): 30 to 40%

SMILES: CO[C@H]1C[C@H](O[C@H]2CC[C@@]3(C)[C@H](CC[C@@H]4[C@@H]3CC[C@]3(C)[C@@H](C5=CC(=O)OC5)CC[C@]43O)C2)O[C@H](C)[C@H]1O
- pIC50 [1]: 7.01

- pIC50 [1]: 4.64
SMILES: CC1(C)CC[C@]2(C(=O)O)CC[C@]3(C)C(=CC[C@@H]4[C@@]5(C)C[C@@H](O)[C@H](O)C(C)(C)[C@@H]5CC[C@]43C)[C@@H]2C1 [MASLINIC ACID]

SMILES: CO[C@@H]1C[C@H](O[C@H]2CC[C@@]3(C)[C@H](CC[C@@H]4[C@@H]3CC[C@]3(C)[C@@H](C5=CC(=O)OC5)CC[C@]43O)C2)O[C@@H](C)[C@@H]1O
- inhibition (Homo sapiens): Dose-dependent effect
- Activity (Huh-7 [3]): 27.1%
- pIC50 [1]: 7.03
- pIC50 (HEK293): 5.30
- Activity (Huh-7 [4]): 72.9%
- pIC50 (HCT-116): 7.24
- pIC50 (DU-145): 6.85
- inhibition (Huh-7 [5]): Dose-dependent effect
- Activity (Huh-7 [6]): 80.1%
- Activity (Huh-7 [7]): 19.9%

SMILES: CO[C@H]1C[C@@H](O[C@H]2CC[C@@]3(C)[C@H](CC[C@@H]4[C@@H]3CC[C@]3(C)[C@@H](C5=CC(=O)OC5)CC[C@]43O)C2)O[C@@H](C)[C@@H]1O
- pIC50 [1]: 6.35

SMILES: C=C(C)[C@@H]1CC[C@]2(C(=O)OC)CC[C@]3(C(=O)O)[C@H](CC[C@@H]4[C@@]5(C)CC[C@H](O)C(C)(C)[C@@H]5CC[C@]43C)[C@@H]12
- pIC50 [1]: 4.71
